Source: patent publication US20100227858A1, “TRISUBSTITUTED PYRIMIDINE DERIVATIVES FOR THE TREATMENT OF PROLIFERATIVE DISEASES” (ASTRAZENECA AB, priority 2007, published 2010)
Values joined by “and” are separate entries in the source; they are usually repeats but may differ in a detail not shown here. Identical values can stand only once. Like-named read-outs stand apart in the source and are kept apart here.

Legend:
PI3K = molecular target: T1, PI3K; assay: In vitro PI3K enzyme assay, Test (b)(i) (AlphaScreen); type: biochemical, human; details: single values measured on two occasions; isoform (p110α or p110γ) not clearly stated; read-out: IC50 versus PI3K, Test (b)(i)
T1 construct: full length DNA of each of the p110α, p110β and p110δ Type Ia human PI3K p110 isoforms
T1 sequence (P42336 whole entry, canonical isoform): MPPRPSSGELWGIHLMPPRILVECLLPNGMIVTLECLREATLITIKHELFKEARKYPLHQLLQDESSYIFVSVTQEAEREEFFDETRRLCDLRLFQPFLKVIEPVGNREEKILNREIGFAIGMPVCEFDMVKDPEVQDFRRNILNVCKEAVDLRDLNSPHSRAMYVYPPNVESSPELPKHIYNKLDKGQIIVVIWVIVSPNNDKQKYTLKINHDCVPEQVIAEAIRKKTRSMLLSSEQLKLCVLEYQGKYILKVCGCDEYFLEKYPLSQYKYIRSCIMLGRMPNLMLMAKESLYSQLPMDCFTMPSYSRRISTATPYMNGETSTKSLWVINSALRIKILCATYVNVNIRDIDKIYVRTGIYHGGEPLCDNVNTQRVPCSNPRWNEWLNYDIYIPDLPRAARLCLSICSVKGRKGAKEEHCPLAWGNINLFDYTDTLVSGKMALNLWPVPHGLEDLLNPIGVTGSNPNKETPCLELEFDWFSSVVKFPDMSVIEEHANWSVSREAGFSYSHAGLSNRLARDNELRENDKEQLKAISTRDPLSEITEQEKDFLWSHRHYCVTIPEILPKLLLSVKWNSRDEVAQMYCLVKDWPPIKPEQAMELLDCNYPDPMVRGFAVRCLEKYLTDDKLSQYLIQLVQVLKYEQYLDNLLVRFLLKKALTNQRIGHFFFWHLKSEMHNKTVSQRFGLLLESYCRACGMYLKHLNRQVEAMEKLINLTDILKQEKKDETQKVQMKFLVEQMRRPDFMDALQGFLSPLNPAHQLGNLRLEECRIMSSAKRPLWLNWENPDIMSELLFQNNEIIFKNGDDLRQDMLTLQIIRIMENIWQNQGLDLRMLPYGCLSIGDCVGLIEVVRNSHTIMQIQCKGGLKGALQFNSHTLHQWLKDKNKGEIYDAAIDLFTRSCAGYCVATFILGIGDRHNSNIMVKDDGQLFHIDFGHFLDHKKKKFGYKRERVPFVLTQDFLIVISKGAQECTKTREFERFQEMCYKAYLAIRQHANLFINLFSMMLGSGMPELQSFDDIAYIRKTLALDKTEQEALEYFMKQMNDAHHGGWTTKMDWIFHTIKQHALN
T1 sequence (P27986 2-724, further chain): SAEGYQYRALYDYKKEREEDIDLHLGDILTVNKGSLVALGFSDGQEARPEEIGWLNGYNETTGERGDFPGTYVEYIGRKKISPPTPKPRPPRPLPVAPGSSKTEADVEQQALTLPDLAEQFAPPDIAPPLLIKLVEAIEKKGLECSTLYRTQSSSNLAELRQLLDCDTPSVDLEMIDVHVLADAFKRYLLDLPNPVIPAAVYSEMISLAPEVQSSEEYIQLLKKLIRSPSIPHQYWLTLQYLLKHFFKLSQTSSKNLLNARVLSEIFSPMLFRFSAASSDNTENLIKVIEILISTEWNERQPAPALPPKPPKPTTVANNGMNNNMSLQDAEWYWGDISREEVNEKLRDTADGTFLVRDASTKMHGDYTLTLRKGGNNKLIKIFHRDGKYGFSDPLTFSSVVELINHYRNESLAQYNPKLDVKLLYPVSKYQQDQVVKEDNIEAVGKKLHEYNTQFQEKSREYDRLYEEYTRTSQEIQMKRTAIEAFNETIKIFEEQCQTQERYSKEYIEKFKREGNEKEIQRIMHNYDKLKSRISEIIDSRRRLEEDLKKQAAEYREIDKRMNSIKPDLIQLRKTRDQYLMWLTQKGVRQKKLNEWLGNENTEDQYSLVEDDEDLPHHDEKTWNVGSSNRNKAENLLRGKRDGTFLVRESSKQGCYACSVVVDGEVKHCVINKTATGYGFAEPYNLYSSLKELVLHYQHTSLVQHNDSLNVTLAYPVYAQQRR
Text: (b)(i) In Vitro PI3K Enzyme Assay

recombinant mTOR = recombinant mTOR (Homo sapiens, UniProt P42345); assay: In vitro mTOR kinase assay, Test (a)(i) (AlphaScreen); type: biochemical
Sequence of recombinant mTOR (P42345 1362-2549): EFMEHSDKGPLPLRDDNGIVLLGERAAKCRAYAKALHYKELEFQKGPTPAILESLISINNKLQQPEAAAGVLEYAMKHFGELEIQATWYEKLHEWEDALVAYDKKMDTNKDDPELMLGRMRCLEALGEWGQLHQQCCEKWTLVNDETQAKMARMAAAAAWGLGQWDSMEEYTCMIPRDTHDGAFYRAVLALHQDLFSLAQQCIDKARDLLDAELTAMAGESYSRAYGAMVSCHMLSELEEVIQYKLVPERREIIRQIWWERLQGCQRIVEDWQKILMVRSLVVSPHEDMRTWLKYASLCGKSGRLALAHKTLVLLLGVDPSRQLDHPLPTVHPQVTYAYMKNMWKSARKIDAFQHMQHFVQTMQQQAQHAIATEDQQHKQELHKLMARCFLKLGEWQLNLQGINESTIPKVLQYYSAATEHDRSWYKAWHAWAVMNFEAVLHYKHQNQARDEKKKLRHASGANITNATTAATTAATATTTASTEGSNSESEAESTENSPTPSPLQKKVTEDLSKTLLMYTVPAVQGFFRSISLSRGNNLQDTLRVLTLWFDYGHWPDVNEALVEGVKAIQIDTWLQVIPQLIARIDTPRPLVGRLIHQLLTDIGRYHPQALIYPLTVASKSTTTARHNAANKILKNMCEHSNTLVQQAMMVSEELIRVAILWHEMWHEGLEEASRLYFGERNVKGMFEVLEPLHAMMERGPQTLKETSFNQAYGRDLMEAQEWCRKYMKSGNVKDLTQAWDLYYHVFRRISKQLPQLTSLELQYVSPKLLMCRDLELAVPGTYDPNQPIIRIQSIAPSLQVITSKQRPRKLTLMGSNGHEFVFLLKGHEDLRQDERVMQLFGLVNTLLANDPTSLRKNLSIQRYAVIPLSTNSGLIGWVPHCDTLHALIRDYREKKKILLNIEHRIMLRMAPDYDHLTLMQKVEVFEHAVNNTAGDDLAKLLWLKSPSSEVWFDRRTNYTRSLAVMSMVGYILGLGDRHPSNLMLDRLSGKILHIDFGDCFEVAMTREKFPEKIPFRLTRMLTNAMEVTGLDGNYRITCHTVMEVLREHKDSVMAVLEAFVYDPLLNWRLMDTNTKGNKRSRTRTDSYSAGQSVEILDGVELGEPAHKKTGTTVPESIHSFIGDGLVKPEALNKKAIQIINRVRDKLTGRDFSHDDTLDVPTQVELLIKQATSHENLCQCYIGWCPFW
Protocol: (a)(i) In Vitro mTOR Kinase Assay
The HEK293 FLAG-tagged mTOR (1362-2549) stable cell line was routinely maintained at 37° C. with 5% CO2 up to a confluency of 70-90% in Dulbecco's modified Eagle's growth medium (DMEM; Invitrogen Limited, Paisley, UK Catalogue No. 41966-029) containing 10% heat-inactivated foetal calf serum (FCS; Sigma, Poole, Dorset, UK, Catalogue No. F0392), 1% L-glutamine (Gibco, Catalogue No. 25030-024) and 2 mg/ml Geneticin (G418 sulfate; Invitrogen Limited, UK Catalogue No. 10131-027). Following expression in the mammalian HEK293 cell line, expressed protein was purified using the FLAG epitope tag using standard purification techniques.
A 30 μl mixture of recombinant purified mTOR enzyme, 1 μM biotinylated peptide substrate (Biotin-Ahx-[…]NH2; Bachem UK Ltd), ATP (20 μM) and a buffer solution [comprising Tris-HCl pH7.4 buffer (50 mM), EGTA (0.1 mM), bovine serum albumin (0.5 mg/mL), DTT (1.25 mM) and manganese chloride (10 mM)] was agitated at room temperature for 90 minutes.
These assay solutions were incubated for 2 hours at room temperature.
Phosphorylated biotinylated peptide is formed in situ as a result of mTOR mediated phosphorylation. The phosphorylated biotinylated peptide that is associated with AlphaScreen Streptavidin donor beads forms a complex with the p70 S6 Kinase (T389) 1A5 Monoclonal Antibody that is associated with Alphascreen Protein A acceptor beads. […] Accordingly, the presence of mTOR kinase activity results in an assay signal. In the presence of an mTOR kinase inhibitor, signal strength is reduced.

Serine 473 in Akt = assay: In vitro phospho-Ser473 Akt assay, Test (c); type: cell-based; details: Homo sapiens; MDA-MB-468 cells; read-out: IC50 versus Serine 473 in Akt, Test (c)
Protocol: (c) In Vitro phospho-Ser473 Akt Assay
This assay determines the ability of test compounds to inhibit phosphorylation of Serine 473 in Akt as assessed using Acumen Explorer technology (Acumen Bioscience Limited), a plate reader that can be used to rapidly quantitate features of images generated by laser-scanning.
A MDA-MB-468 human breast adenocarcinoma cell line (LGC Promochem, Teddington, Middlesex, UK, Catalogue No. HTB-132) was routinely maintained at 37° C. with 5% CO2 up to a confluency of 70-90% in DMEM containing 10% heat-inactivated FCS and 1% L-glutamine.
For the assay, the cells were detached from the culture flask using ‘Accutase’ (Innovative Cell Technologies Inc., San Diego, Calif., USA; Catalogue No. AT104) using standard tissue culture methods and resuspended in media to give 1.7×10^5 cells per mL. […]
All subsequent aspiration and wash steps were carried out using a Tecan 96 well plate washer (aspiration speed 10 mm/sec). […] An aliquot of PBS (50 μl) was added to each well and the plates were sealed with black plate sealers and the fluorescence signal was detected and analysed.
Fluorescence dose response data obtained with each compound were analysed and the degree of inhibition of Serine 473 in Akt was expressed as an IC50 value.

[1] = enzyme assay, values may represent the average of two or more measurements, read-out: Test (a)(i) IC50

Structure (SMILES)	IC50 (recombinant mTOR; [1]) [nM]	further results
C[C@H]1COCCN1c1cc(CS(C)(=O)=O)nc(-c2ccc3c(C(N)=O)c[nH]c3c2)n1 [Example 36, 6-[4-[(3S)-3-Methylmorpholin-4-yl]-6-(methylsulfonylmethyl)pyrimidin-2-yl]-1H-indole-3-carboxamide]	1640	–
C[C@H]1COCCN1c1cc(CS(C)(=O)=O)nc(-c2ccc3[nH]c(C(N)=O)cc3c2)n1 [Example 37, 5-[4-[(3S)-3-Methylmorpholin-4-yl]-6-(methylsulfonylmethyl)pyrimidin-2-yl]-1H-indole-2-carboxamide]	336	–
C[C@H]1COCCN1c1cc(CS(C)(=O)=O)nc(-c2ccc3cc(C(N)=O)[nH]c3c2)n1 [Example 38, 6-[4-[(3S)-3-Methylmorpholin-4-yl]-6-(methylsulfonylmethyl)pyrimidin-2-yl]-1H-indole-2-carboxamide]	5350	–
C[C@H]1COCCN1c1cc(C(C)(C)S(C)(=O)=O)nc(-c2ccc3[nH]cnc3c2)n1 [Example 39, 5-[4-[(3S)-3-Methylmorpholin-4-yl]-6-(2-methylsulfonylpropan-2-yl)pyrimidin-2-yl]-1H-benzoimidazole]	192	–
C[C@H]1COCCN1c1cc(C(C)(C)S(C)(=O)=O)nc(-c2cnc3[nH]ccc3c2)n1 [Example 40, 3-[4-[(3S)-3-Methylmorpholin-4-yl]-6-(2-methylsulfonylpropan-2-yl)pyrimidin-2-yl]-5,7-diazabicyclo[4.3.0]nona-1,3,5,8-tetraene]	588	–
C[C@H]1COCCN1c1cc(C(C)(C)S(C)(=O)=O)nc(-c2cccc3[nH]ccc23)n1 [Example 42, 4-[4-[(3S)-3-methylmorpholin-4-yl]-6-(2-methylsulfonylpropan-2-yl)pyrimidin-2-yl]-1H-indole]	335	–

Further lines, with some results ahead:

IC50 (recombinant mTOR; [1]) [nM]	Structure (SMILES)	further results
478	C[C@H]1COCCN1c1cc(CS(C)(=O)=O)nc(-c2ccc3cc[nH]c3c2)n1 [Example 35, 6-[4-[(3S)-3-Methylmorpholin-4-yl]-6-(methylsulfonylmethyl)pyrimidin-2-yl]-1H-indole]	IC50 (PI3K): 37 µM; IC50 (recombinant mTOR; single values measured on two occasions, read-out: IC50 versus mTOR kinase, Test (a)(i)): 566 nM and 404 nM; IC50 (Serine 473 in Akt): 3.36 µM
117	C[C@H]1COCCN1c1cc(C(C)(C)S(C)(=O)=O)nc(-c2ccc3[nH]ccc3c2)n1 [Example 41, 5-[4-[(3S)-3-methylmorpholin-4-yl]-6-(2-methylsulfonylpropan-2-yl)pyrimidin-2-yl]-1H-indole]	–
880	C[C@H]1COCCN1c1cc(C(C)(C)S(C)(=O)=O)nc(-c2ccc3cc[nH]c3c2)n1 [Example 43, 6-[4-[(3S)-3-methylmorpholin-4-yl]-6-(2-methylsulfonylpropan-2-yl)pyrimidin-2-yl]-1H-indole]	–
366	C[C@H]1COCCN1c1cc(CS(=O)(=O)c2ccccc2)nc(-c2cccc3[nH]ccc23)n1 [Example 44, 4-[4-(Benzenesulfonylmethyl)-6-[(3S)-3-methylmorpholin-4-yl]pyrimidin-2-yl]-1H-indole]	–
119	C[C@H]1COCCN1c1cc(CS(=O)(=O)c2ccccc2)nc(-c2ccc3[nH]ccc3c2)n1 [Example 45, 5-[4-(benzenesulfonylmethyl)-6-[(3S)-3-methylmorpholin-4-yl]pyrimidin-2-yl]-1H-indole]	–
932	C[C@H]1COCCN1c1cc(CS(=O)(=O)c2ccccc2)nc(-c2cnc3[nH]ccc3c2)n1 [Example 46, 3-[4-(benzenesulfonylmethyl)-6-[(3S)-3-methylmorpholin-4-yl]pyrimidin-2-yl]-5,7-diazabicyclo[4.3.0]nona-1,3,5,8-tetraene]	–
512	C[C@H]1COCCN1c1cc(CS(=O)(=O)c2ccccc2)nc(-c2ccc3cc[nH]c3c2)n1 [Example 47, 6-[4-(benzenesulfonylmethyl)-6-[(3S)-3-methylmorpholin-4-yl]pyrimidin-2-yl]-1H-indole]	–
108	C[C@H]1COCCN1c1cc(CS(=O)(=O)c2ccccc2)nc(-c2ccc3[nH]cnc3c2)n1 [Example 48, 5-[4-(benzenesulfonylmethyl)-6-[(3S)-3-methylmorpholin-4-yl]pyrimidin-2-yl]-1H-benzoimidazole]	–
